According to PMC8894670, “An Integrative Multiomics Approach to Characterize Prebiotic Inulin Effects on Faecalibacterium prausnitzii” (Frontiers in Bioengineering and Biotechnology, 2022):

Key:
β-fructosidase (bfrA) = molecular target: T1, β-fructosidase (bfrA) (Faecalibacterium duncaniae, UniProt C7H8W7); test: MALDI-TOF-MS of products, lysate of overexpressing E. coli; assay type: biochemical; conditions: 10 mg/ml sucrose, 50 mM sodium phosphate, 37°C, 10 min; 36 ng soluble lysate protein
T1 construct: gene FAEPRAA2165_02761; full-length ORF amplified from genomic DNA, pET28a (BamHI/XhoI sites in primers, tag kept if any), E. coli BL21(DE3), soluble lysate; EC 3.2.1.26, GH32; primers encode N-term MNDLTL, C-term FELNL
T1 sequence (C7H8W7 1-491): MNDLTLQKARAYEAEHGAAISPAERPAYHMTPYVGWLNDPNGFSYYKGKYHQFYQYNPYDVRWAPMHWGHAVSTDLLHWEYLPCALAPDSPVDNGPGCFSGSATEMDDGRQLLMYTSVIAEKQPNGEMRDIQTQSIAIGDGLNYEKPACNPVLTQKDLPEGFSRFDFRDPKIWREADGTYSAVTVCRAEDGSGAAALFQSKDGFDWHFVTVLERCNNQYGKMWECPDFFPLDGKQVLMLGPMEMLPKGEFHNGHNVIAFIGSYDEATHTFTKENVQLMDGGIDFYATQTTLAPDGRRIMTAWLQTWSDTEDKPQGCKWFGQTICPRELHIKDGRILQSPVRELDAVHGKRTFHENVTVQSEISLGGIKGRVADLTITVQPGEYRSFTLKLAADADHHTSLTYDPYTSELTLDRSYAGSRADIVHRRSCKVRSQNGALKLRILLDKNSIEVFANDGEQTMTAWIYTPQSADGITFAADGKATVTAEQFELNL

amylosucrase (ams) = molecular target: T2, amylosucrase (ams) (Faecalibacterium duncaniae, UniProt C7H8X5); test: as above; assay type: biochemical; conditions: 10 mg/ml sucrose, 50 mM sodium phosphate, 37°C, 10 min; 36 ng soluble lysate protein
T2 construct: gene FAEPRAA2165_02769; full-length ORF amplified from genomic DNA, pET28a (BamHI/XhoI sites in primers, tag kept if any), E. coli BL21(DE3), soluble lysate; EC 2.4.1.4, GH13; primers encode N-term MAAKQE, C-term LVKNK
T2 sequence (C7H8X5 1-609): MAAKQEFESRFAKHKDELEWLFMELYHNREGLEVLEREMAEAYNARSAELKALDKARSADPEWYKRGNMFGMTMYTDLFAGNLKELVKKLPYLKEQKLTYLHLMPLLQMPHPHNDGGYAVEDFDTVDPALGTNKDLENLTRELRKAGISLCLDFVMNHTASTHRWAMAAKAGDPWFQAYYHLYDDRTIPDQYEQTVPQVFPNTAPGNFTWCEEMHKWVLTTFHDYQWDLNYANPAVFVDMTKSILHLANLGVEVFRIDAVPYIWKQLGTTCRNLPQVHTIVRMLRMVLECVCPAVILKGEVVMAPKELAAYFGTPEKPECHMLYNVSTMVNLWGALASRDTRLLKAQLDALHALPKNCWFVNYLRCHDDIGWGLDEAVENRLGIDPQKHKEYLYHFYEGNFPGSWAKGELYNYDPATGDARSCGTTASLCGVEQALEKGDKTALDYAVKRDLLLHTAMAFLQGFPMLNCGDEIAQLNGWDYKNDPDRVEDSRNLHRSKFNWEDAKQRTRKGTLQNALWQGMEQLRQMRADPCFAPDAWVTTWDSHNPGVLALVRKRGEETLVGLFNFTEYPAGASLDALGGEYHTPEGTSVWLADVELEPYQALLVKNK

## OC[C@H]1O[C@@](CO)(O[C@H]2O[C@H](CO)[C@@H](O)[C@H](O)[C@H]2O)[C@@H](O)[C@@H]1O [sucrose]
β-fructosidase (bfrA)
  MALDI-TOF-MS of products, lysate of overexpressing E. coli: sucrose was degraded by the pET28a-ams and pET28a-bfrA recombinant strains
Amylosucrase (ams)
  MALDI-TOF-MS of products, lysate of overexpressing E. coli: sucrose was degraded by the pET28a-ams and pET28a-bfrA recombinant strains
